The text below walks through data of ChEMBL document CHEMBL3797140, “Acridin-3,6-dialkyldithiourea hydrochlorides as new photosensitizers for photodynamic therapy of mouse leukemia cells” (Bioorg Med Chem, 2016).

A word on the IC50: it is the point on the concentration scale where inhibition reaches its midpoint.

Data set [1] is described as follows: Dark toxicity against mouse L1210 cells assessed as cell viability after 48 hrs by MTT assay. The format is cell-based. Background: Tetrazolium assays rely on reduction of a dye to a coloured formazan, in cell work by metabolically active cells.
Data set [2] is described as follows: Phototoxicity against mouse NIH/3T3 cells assessed as cell viability preincubated for 1 hr followed by 1.05 J/cm2 UV-A irradiation measured after 48 hrs by MTT assay. Type of data set: cell-based. The following applies: NIH3T3, light or radiation study.
The nature of data set [3]: Dark toxicity against mouse NIH/3T3 cells assessed as cell viability after 48 hrs by MTT assay. Type of data set: cell-based, NIH3T3.
Data set [4] concerns L1210. The experiment in a line: Phototoxicity against mouse L1210 cells assessed as cell viability preincubated for 1 hr followed by 1.05 J/cm2 UV-A irradiation measured after 48 hrs by MTT assay. Type of data set: functional, cell-based. The following applies: L1210, light or radiation study.

In the case of `CCNC(=S)Nc1ccc2cc3ccc(NC(=S)NCC)cc3nc2c1`, the IC50 at 48 h worked out at 12 µM in data set [1] and 40.2 µM in data set [3]. The IC50 is 2.8 µM in data set [2] and 0.9 µM in data set [4].
